{"source": "patent US10682371B2", "about": "“Small molecule conjugates specifically activated in tumor microenvironment for targeting and use thereof” (priority 2014, dated 2020)", "key": {"[1]": {"tested_on": "Human heart", "type": "biochemical", "conditions": "Human heart, 1 mg/ml"}, "[2]": {"tested_on": "Human fibrosarcoma HT-1080 tumor tissue homogenate", "type": "biochemical", "conditions": "Human fibrosarcoma HT-1080", "method_in_brief": "(§1)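 Activation efficiency by tissue proteases is the read-out. Each sample compound, at 1 mg/ml, was incubated with 100 μg of acid-treated homogenate at pH6.0 and 37° C.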"}, "[3]": {"tested_on": "tumor tissue homogenates", "type": "biochemical", "method_in_brief": "as §1"}, "[4]": {"assay": "Solubility / formulation test in solvent 1 and solvent 2", "type": "physicochemical", "conditions": "for Concentration achieved, completely dissolved in both solvent 1 and solvent 2: solvent 1 injectable water"}, "[5]": {"tested_on": "Human prostate cancer PC-3 cells / Panc-1 cells", "assay": "Tumor treatment in nude mice (PC-3 cells purchased, Panc-1 cells injected; Examples 22, 32, 42)", "type": "in vivo", "conditions": "for Inhibition on tumor growth, in words: compared with parent drug group (same molar concentration) and control group", "method_in_brief": "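Nude mice bearing subcutaneous Panc-1 xenografts (5×10^6 cells on the back) were randomized once tumors reached at least 100 mm^3. Drugs were given intravenously once weekly for four weeks, with saline controls. PC-3 cells were grown in DMEM/10% FBS and used within passage 15.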"}, "[6]": {"tested_on": "4T1 cells", "assay": "BALB/C mice model for tumor metastasis (4T1, lung metastases)", "type": "in vivo", "conditions": "for Inhibitory rate on metastasis / Number of metastasized tumor: IV every three days for 4 times, Paclitaxel 4 mg/kg; for Inhibitory effect on tumor metastasis, in words: compared with parent drug group and control group", "method_in_brief": "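10^6 4T1 cells (DMEM, 10% FBS, within passage 15) injected subcutaneously into the back of BALB/C mice; primary tumor resected at about 1.5 cm, then dosing began. Drugs given IV once every three days, 4 times; saline controls. Lungs removed day 27, Bouin's-stained, metastases counted under anatomical microscope.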"}, "[7]": {"tested_on": "BALB/C mice", "assay": "Maximum tolerated dose (MTD) / acute toxicity by single intravenous injection", "conditions": "for Behaviors and death observed: BALB/C mice receiving 90 mg/kg injection"}, "[8]": {"conditions": "Table 26, nude mice, IV once weekly for four weeks, A1-A4 24 mg/kg, Paclitaxel 8 mg/kg"}, "[9]": {"conditions": "Table 28, BALB/C mice, 4T1, lung metastases day 27, A1-A4 12 mg/kg"}, "[10]": {"conditions": "single intravenous injection, 125 mg/kg, 10 BALB/C mice per group"}, "[11]": {"conditions": "single intravenous injection, 150 mg/kg, 10 BALB/C mice per group"}, "[12]": {"conditions": "single intravenous injection, 175 mg/kg, 10 BALB/C mice per group"}, "[13]": {"conditions": "single intravenous injection, 200 mg/kg, 10 BALB/C mice per group"}, "[14]": {"conditions": "nude mice, IV once weekly for four weeks, S1′-S4′ 24 mg/kg, Paclitaxel 8 mg/kg, Day 10"}, "[15]": {"conditions": "nude mice, IV once weekly for four weeks, S1′-S4′ 24 mg/kg, Paclitaxel 8 mg/kg"}, "[16]": {"conditions": "4T1, BALB/C mice, lung, day 27, S1′-S4′ 12 mg/kg"}}, "note": "Read-outs that look alike come from different tables or passages of the source.", "data": [{"smiles": "COCCOCCOCCOCCOCCOCCOCCOCCOCCOCCOCCOCC(=O)NCCCC[C@H](NC(=O)COCCOCCOCCOCCOCCOCCOCCOCCOCCOCCOCCOC)C(=O)N[C@H](C)C(=O)N[C@H](C)C(=O)N[C@H](CC(N)=O)C(=O)Nc1ccc(COC(=O)OC(C(=O)OC2C[C@@]3(O)[C@@H](OC(=O)c4ccccc4)[C@H]4[C@](C)(C(=O)[C@H](OC(C)=O)C(=C2C)C3(C)C)[C@@H](O)CC2OC[C@]24OC(C)=O)[C@@H](NC(=O)c2ccccc2)c2ccccc2)cc1", "note": "(stereo partly shown) [Compound A3]", "values": [{"measurement": "Activation ratio (%) in homogenates from different tumor tissues", "setting": "[1]; acidized homogenate pH6.0, Paclitaxel release by HPLC", "value": "none"}, {"measurement": "Activation ratio (%) in homogenates from different tumor tissues", "setting": "[2]; 1 mg/ml, 100 μg acidized homogenate pH6.0, Paclitaxel release by HPLC", "value": 70.3, "unit": "%"}, {"measurement": "Activation efficiency by tumor tissue, in words", "setting": "[3]", "value": "highest activation efficiency among the screened compounds"}, {"measurement": "solubility in Solvent 1", "setting": "[4]; solvent 1 (injectable water), Table 22, Paclitaxel series", "value": "soluble"}, {"measurement": "Concentration achieved, completely dissolved in both solvent 1 and solvent 2", "setting": "[4]; solvent 2 45% alcohol, 55% injectable water", "value": 10000, "unit": "µg/mL"}, {"measurement": "solubility in Solvent 2", "setting": "[4]; solvent 2 (45% alcohol, 55% injectable water), Table 22, Paclitaxel series", "value": "soluble"}, {"measurement": "Solubility in water, in words", "setting": "[4]; water", "value": "can directly dissolve in water"}, {"measurement": "inhibitory rate on tumor Day 10", "setting": "[5]; Table 26, nude mice, IV once weekly for four weeks, A1-A4 24 mg/kg, Paclitaxel 8 mg/kg, Day 10", "value": 71.9, "unit": "%"}, {"measurement": "Size of tumor (mm^3) Day 24", "setting": "[5]; [8]", "value": "81.83 ± 89.2", "unit": "mm^3"}, {"measurement": "inhibitory rate on tumor Day 24", "setting": "[5]; [8]", "value": 78.5, "unit": "%"}, {"measurement": "Inhibition on tumor growth, in words", "setting": "[5]", "value": "greatly improved"}, {"measurement": "Inhibitory rate on metastasis", "setting": "[6]; [9]", "value": 89.1, "unit": "%"}, {"measurement": "Number of metastasized tumor", "setting": "[6]; [9]", "value": "16 ± 9"}, {"measurement": "Inhibitory effect on tumor metastasis, in words", "setting": "[6]", "value": "greatly improved"}, {"measurement": "Behaviors and death observed", "setting": "[7]", "value": "no pilo-erection, hair tousle and lackluster, lethargy, stoop, irritable reaction and death"}, {"measurement": "Mortality rate (%)", "setting": "[7]; [10]", "value": 10, "unit": "%"}, {"measurement": "Number of dead animal", "setting": "[7]; [10]", "value": 1}, {"measurement": "Mortality rate (%)", "setting": "[7]; [11]", "value": 0, "unit": "%"}, {"measurement": "Number of dead animal", "setting": "[7]; [11]", "value": 0}, {"measurement": "Mortality rate (%)", "setting": "[7]; [12]", "value": 0, "unit": "%"}, {"measurement": "Number of dead animal", "setting": "[7]; [12]", "value": 0}, {"measurement": "Mortality rate (%)", "setting": "[7]; [13]", "value": 0, "unit": "%"}, {"measurement": "Number of dead animal", "setting": "[7]; [13]", "value": 0}]}, {"smiles": "COCCOCCOCCOCCOCCOCCOCCOCCOCCOCCOCCOCC(=O)N[C@H](C)C(=O)N[C@H](C)C(=O)N[C@H](CC(N)=O)C(=O)Nc1ccc(COC(=O)OC(C(=O)OC2C[C@@]3(O)[C@@H](OC(=O)c4ccccc4)[C@H]4[C@](C)(C(=O)[C@H](OC(C)=O)C(=C2C)C3(C)C)[C@@H](O)CC2OC[C@]24OC(C)=O)[C@@H](NC(=O)c2ccccc2)c2ccccc2)cc1", "note": "(stereo partly shown) [S3′]", "values": [{"measurement": "Activation ratio (%) in homogenates from different tumor tissues", "setting": "[1]; 37°", "value": "none"}, {"measurement": "Activation ratio (%) in homogenates from different tumor tissues", "setting": "[2]; 100 μg acidized homogenate pH6.0, 1 mg/ml, 37°", "value": 67.9, "unit": "%"}, {"measurement": "Activation efficiency by tumor tissue, in words", "setting": "[3]", "value": "highest activation efficiency among the screened compounds"}, {"measurement": "solubility in Solvent 1", "setting": "[4]; Solvent 1 injectable water, dissolution concentration 10 mg/ml", "value": "soluble"}, {"measurement": "solubility in Solvent 2", "setting": "[4]; Solvent 2: 50% injectable water, 45%-49% propanediol, 1%-5% Tween80, dissolution concentration 10 mg/ml", "value": "soluble"}, {"measurement": "Concentration achieved, completely dissolved in both solvent 1 and solvent 2", "setting": "[4]; solvent 2 50% injectable water, 42%-49% propanediol, 1%-8% Tween80", "value": 10000, "unit": "µg/mL"}, {"measurement": "Inhibition on tumor growth, in words", "setting": "[5]", "value": "greatly improved"}, {"measurement": "Size of tumor (mm^3) Day 10", "setting": "[5]; [14]", "value": "75.60 ± 28.54", "unit": "mm^3"}, {"measurement": "inhibitory rate on tumor Day 10", "setting": "[5]; [14]", "value": 49.4, "unit": "%"}, {"measurement": "Size of tumor (mm^3) Day 24", "setting": "[5]; [15]", "value": "74.39 ± 48.94", "unit": "mm^3"}, {"measurement": "inhibitory rate on tumor Day 24", "setting": "[5]; [15]", "value": 70.2, "unit": "%"}, {"measurement": "Inhibitory rate on metastasis", "setting": "[6]; [16]", "value": 90.44, "unit": "%"}, {"measurement": "Number of metastasized tumor", "setting": "[6]; [16]", "value": "13 ± 8"}, {"measurement": "Inhibitory effect on tumor metastasis, in words", "setting": "[6]", "value": "greatly improved"}, {"measurement": "Behaviors and death observed", "setting": "[7]", "value": "no pilo-erection, hair tousle and lackluster, lethargy, stoop, irritable reaction and death"}, {"measurement": "Mortality rate (%)", "setting": "[7]; BALB/C mice, single iv, 125 mg/kg", "value": 0, "unit": "%"}, {"measurement": "Number of dead animal", "setting": "[7]; BALB/C mice, single iv, 125 mg/kg, 10 animals", "value": 0}, {"measurement": "Mortality rate (%)", "setting": "[7]; BALB/C mice, single iv, 150 mg/kg", "value": 0, "unit": "%"}, {"measurement": "Number of dead animal", "setting": "[7]; BALB/C mice, single iv, 150 mg/kg, 10 animals", "value": 0}, {"measurement": "Mortality rate (%)", "setting": "[7]; BALB/C mice, single iv, 175 mg/kg", "value": 0, "unit": "%"}, {"measurement": "Number of dead animal", "setting": "[7]; BALB/C mice, single iv, 175 mg/kg, 10 animals", "value": 0}, {"measurement": "Mortality rate (%)", "setting": "[7]; BALB/C mice, single iv, 200 mg/kg", "value": 10, "unit": "%"}, {"measurement": "Number of dead animal", "setting": "[7]; BALB/C mice, single iv, 200 mg/kg, 10 animals", "value": 1}]}]}
